Test results from ChEMBL document CHEMBL4308849, “Antimalarial Lead-Optimization Studies on a 2,6-Imidazopyridine Series within a Constrained Chemical Space To Circumvent Atypical Dose-Response Curves against Multidrug Resistant Parasite Strains” (J Med Chem, 2018).

Experiments:
[1] = Metabolic stability in mouse liver microsomes assessed as parent compound remaining at 0.1 uM after 60 mins in presence of NADPH by LC-MS/MS analysis; type: ADME, Microsome; settings: read-out: Stability
[2] = Metabolic stability in rat liver microsomes assessed as parent compound remaining at 0.1 uM after 60 mins in presence of NADPH by LC-MS/MS analysis; type: ADME, Microsome; settings: read-out: Stability
[3] = Metabolic stability in human liver microsomes assessed as parent compound remaining at 0.1 uM after 60 mins in presence of NADPH by LC-MS/MS analysis; type: ADME, Microsome; settings: read-out: Stability
[4] = AUC (0 to infinity) in Balb/c mouse at 2 mg/kg, iv by LC-MS/MS analysis; type: ADME, organism-based; set-up: dose 2 mg/kg, route intravenous, time infinity; settings: in vivo
[5] = Cmax in Balb/c mouse at 20 mg/kg, po by LC-MS/MS analysis; type: ADME, organism-based; set-up: dose 20 mg/kg, route oral; settings: in vivo
[6] = Blood clearance in Balb/c mouse at 2 mg/kg, iv by LC-MS/MS analysis; type: ADME, organism-based; settings: whole blood
[7] = Oral bioavailability in Balb/c mouse at 20 mg/kg by LC-MS/MS analysis; type: ADME, organism-based; settings: in vivo
[8] = Volume of distribution in Balb/c mouse at 2 mg/kg, iv by LC-MS/MS analysis; type: ADME, organism-based; settings: in vivo
[9] = Tmax in Balb/c mouse at 20 mg/kg, po by LC-MS/MS analysis; type: ADME, organism-based; settings: in vivo
[10] = Half life in Balb/c mouse at 2 mg/kg, iv by LC-MS/MS analysis; type: ADME, organism-based; settings: in vivo
[11] = AUC (0 to infinity) in Balb/c mouse at 20 mg/kg, po by LC-MS/MS analysis; type: ADME, organism-based; set-up: dose 20 mg/kg, route oral, time infinity; settings: in vivo

Row | SMILES | remaining at 1 h, 0.1 µM [1] | remaining at 1 h, 0.1 µM [2] | remaining at 1 h, 0.1 µM [3] | further results
1 | Fc1ccc(-c2nc3cnc(Nc4ccc(N5CCN(CC6CC6)CC5)cn4)cc3[nH]2)cc1F | 14% | 9% | 7% | 
2 | FC(F)(F)c1ccc(-c2nc3cnc(Nc4ccc(N5CCN(CC6CC6)CC5)cn4)cc3[nH]2)cn1 | 68% | 55% | 93% | 
3 | Fc1ccc(Nc2cc3[nH]c(Nc4ccc(N5CCNCC5)cn4)nc3cn2)cc1C(F)(F)F | 55% | 59% | 92% | 
4 | Fc1ccc(-c2nc3cnc(Nc4ccc(N5CCNCC5)cn4)cc3[nH]2)cc1F | 75% | 73% | 92% | 
5 | FC1(F)CC(c2nc3cnc(Nc4ccc(N5CCN(CC6CC6)CC5)cn4)cc3[nH]2)C1 | 54% | 52% | 86% | 
6 | O=C(c1ccnc(Nc2cc3[nH]c(-c4ccc(F)c(C(F)(F)F)c4)nc3cn2)c1)N1CCN(C2CC2)CC1 | 93% | 53% | 77% | 
7 | CC(C)(C)N1CCN(C(=O)c2ccnc(Nc3cc4[nH]c(-c5cccc(C(F)(F)F)c5)nc4cn3)c2)CC1 | 26% | 48% | 65% | AUC(0-inf) [4]: 0.933 µM·h; Cmax [5]: 40 nM; clearance [6]: 68 mL/min/kg; bioavailability [7]: 2%; Vd [8]: 117 L/kg; Tmax [9]: 0.5 h; half-life [10]: 19 h; AUC(0-inf) [11]: 0.2 µM·h
8 | CC(C)CN1CCN(c2ccc(Nc3cc4[nH]c(C5CCC(F)(F)CC5)nc4cn3)nc2)CC1 | 61% | 64% | 59% | 
9 | Fc1ccc(-c2nc3cnc(Nc4ccc(C5CCNCC5)cn4)cc3[nH]2)cc1F | 87% | 97% | 98% | 
10 | Fc1ccc(Nc2cc3[nH]c(Nc4cc(N5CCNCC5)ccn4)nc3cn2)cc1C(F)(F)F | 78% | 73% | 98% | 
11 | Fc1ccc(-c2nc3cnc(Nc4ccc(N5CCN(CC6CC6)CC5)cn4)cc3[nH]2)cc1C(F)(F)F | 41% | 36% | 52% | 
